{"source": "patent US20040186052A1", "about": "“Cytomodulating peptides and methods for treating neurological disorders” (priority 2002, published 2004)", "molecules": {"B1": {"name": "GDNF: glial cell line-derived neurotrophic factor (protein, UniProt P39905 78-211, looked up)", "Glial cell line-derived …": "SPDKQMAVLPRRERNRQAAAANPENSRGKGRRGQRGKNRGCVLTAIHLNVTDLGLGYETKEELIFRYCSGSCDAAETTYDKILKNLSRNRRLVSDKVGQACCRPIAFDDDLSFLDDNLVYHILRKHSAKRCGCI"}}, "key": {"[1]": {"tested_on": "ChAT neurons of the nucleus basalis", "conditions": "following insult with ibotenic acid; cited from earlier work"}, "[2]": {"tested_on": "dopaminergic neurons in the substantia nigra", "conditions": "MPTP model; cited from earlier work"}, "[3]": {"tested_on": "hair cell and cochlear neuron", "conditions": "associated with trauma; cited from earlier work"}, "MS": {"tested_on": "MS", "conditions": "in vivo; cited from earlier work"}, "[4]": {"tested_on": "neuronal subtypes deprived of trophic support", "conditions": "cited from earlier work"}, "retinal ganglion cells": {"tested_on": "retinal ganglion cells", "conditions": "following axotomy of the optic nerve; cited from earlier work"}, "primary neurons": {"tested_on": "primary neurons", "conditions": "cited from earlier work"}, "[5]": {"conditions": "in vivo; cited from earlier work"}, "[6]": {"tested_on": "experimental autoimmune encephalomyelitis (EAE)", "experiment": "Acute EAE in Lewis rats, daily clinical scoring", "type": "in vivo", "conditions": "intracerebroventricular administration (Table I, FIG. 7)"}, "Body weight in EAE rats": {"experiment": "Body weight in EAE rats", "type": "in vivo, Lewis rats", "conditions": "50, 15, or 5 mg by icv injection ten days after immunization; % body weight vs starting point"}, "TNFα mRNA": {"tested_on": "TNFα mRNA", "experiment": "Cytokine mRNA in brain of EAE rats by real-time RT-PCR", "type": "in vivo, Lewis rats", "conditions": "brain RNA thirteen days after immunization, RDP58- vs Mannitol-treated, n=9, P<0.05", "description": "Animals were sacrificed for molecular analysis at post onset day 5. Brains and spinal cords were removed and frozen in liquid nitrogen, then stored at −80° C. until ready for use. The tissues were subsequently homogenized in 700 μl of a guanidinium isothiocyanate solution containing 49 μl β-mercaptoethanol using an Ultraturrax tissue homogenizer (Jahnke and Kunkel, Staufen i. Breisgau, Germany). Total RNA was extracted by using the Absolutely RNA™ RT-PCR Miniprep Kit (Stratagene, La Jolla, USA) and its quality and quantity was determined with the Agilent 2100 Bioanalyzer System (Agilent Technologies, Palo Alto, USA). […]\nTo measure cytokine mRNA levels, the expression of each gene transcript was analyzed by real-time PCR using the ABI PRISM 7700 Sequence Detection System (TaqMan™, Perkin-Elmer Biosystems, Weiterstadt, Germany). […]\nThe PCR reaction was performed in a final volume of 25 μl containing 1 μl cDNA, 12.5 μl Master Mix (TaqMan™ Universal PCR Master Mix, Perkin Elmer, Applied Biosystems, Weiterstadt, Germany), 1 μl fluorogenic hybridization probe, […], and 5.5 μl distilled water. […] The mean Ct values for beta-actin and the cytokines were calculated from duplicate reactions. […]"}, "NGF-dependent neurons": {"tested_on": "NGF-dependent neurons", "experiment": "Apoptosis of NGF-dependent neurons after NGF deprivation (TUNEL)", "type": "cell-based", "conditions": "media lacking NGF and containing anti-NGF antibody", "description": "NGF-dependent neurons are maintained in vitro in media containing NGF. The cells are washed and the media containing NGF is replaced with media lacking NGF and containing anti-NGF antibody. One sample is incubated in the presence of RDP-58, the other in the absence of RDP-58. Apoptosis is measured in the two samples, for example, by TUNEL labeling. RDP-58 inhibits neuronal apoptosis in NGF-dependent neurons induced by NGF deprivation."}, "[7]": {"conditions": "rheumatoid arthritis patients; cited from earlier work"}, "[8]": {"tested_on": "relapsing-remitting form of MS", "conditions": "patients with relapsing-remitting MS; cited from earlier work"}, "Parkinson's disease": {"tested_on": "Parkinson's disease", "conditions": "direct infusion into the putamen; cited from earlier work"}}, "data": [{"molecule": "CCSCc1ccc2c(c1)c1c3c(c4c5cc(CSCC)ccc5n5c4c1n2[C@H]1C[C@](O)(C(=O)OC)[C@]5(C)O1)CNC3=O", "note": "[CEP-1347]", "values": [{"measurement": "functional deficits", "setting": "[1]", "result": "reduces"}, {"measurement": "survival of ChAT neurons of the nucleus basalis", "setting": "[1]", "result": "promotes"}, {"measurement": "survival of dopaminergic neurons in the substantia nigra", "setting": "[2]", "result": "promotes"}, {"measurement": "functional deficits", "setting": "[3]", "result": "reduce"}, {"measurement": "hair cell and cochlear neuron death", "setting": "[3]", "result": "prevent"}]}, {"molecule": "Cc1ccc(=O)n(-c2ccccc2)c1", "note": "[Pirfenidone]", "values": [{"measurement": "progression of MS", "setting": "MS", "result": "slow"}, {"measurement": "symptoms of MS", "setting": "MS", "result": "reduce"}]}, {"molecule": "Oc1ccc(-c2nc(-c3ccncc3)c(-c3ccc(F)cc3)[nH]2)cc1", "note": "[SB202190]", "values": [{"measurement": "survival of neuronal subtypes", "setting": "[4]", "result": "promote survival"}]}, {"molecule": "C[S+]([O-])c1ccc(-c2nc(-c3ccncc3)c(-c3ccc(F)cc3)[nH]2)cc1", "note": "(stereo not shown) [SB203580]", "values": [{"measurement": "survival of neuronal subtypes", "setting": "[4]", "result": "promote survival"}, {"measurement": "retinal ganglion cell death", "setting": "retinal ganglion cells", "result": "reduced"}, {"measurement": "NO toxicity", "setting": "primary neurons", "result": "inhibits"}]}, {"molecule": "CN(C)c1ccc(O)c2c1C[C@H]1C[C@H]3[C@H](N(C)C)C(O)=C(C(N)=O)C(=O)[C@@]3(O)C(O)=C1C2=O", "note": "[minocycline]", "values": [{"measurement": "penetration of the blood-brain-barrier", "setting": "[5]", "result": "limited"}]}, {"molecule": "Arg-nL-nL-nL-Arg-nL-nL-nL-Gly-Tyr [RDP58]", "values": [{"measurement": "disease index", "setting": "[6]", "result": "reducing"}, {"measurement": "incidence", "setting": "[6]", "result": "reducing"}, {"measurement": "mean clinical scores", "setting": "[6]", "result": "reducing"}, {"measurement": "severity", "setting": "[6]", "result": "reducing"}, {"measurement": "change in body weight associated with EAE induction", "setting": "Body weight in EAE rats", "result": "reduces"}, {"measurement": "TNFα mRNA level in brain", "setting": "TNFα mRNA", "result": "significantly reduced"}, {"measurement": "neuronal apoptosis induced by NGF deprivation", "setting": "NGF-dependent neurons", "result": "inhibits"}]}, {"molecule": "Infliximab: anti-TNF monoclonal antibody", "values": [{"measurement": "demyelinating disease symptoms", "setting": "[7]", "result": "correlated with incidences of demyelinating disease symptoms in some patients"}]}, {"molecule": "glatiramer acetate", "values": [{"measurement": "disease episodes", "setting": "[8]", "result": "reductions"}]}, {"molecule": "B1", "values": [{"measurement": "patients' performance", "setting": "Parkinson's disease", "result": "improve"}]}]}
